Tests used:
Assay in all cases: In vitro assay of antibacterial activity (agar dilution MIC)
Format in all cases: cell-based
[1] = test system: Pseudomonas aeruginosa DPHD-5263; conditions: BHI agar, 35-37 °C, 20 to 24 hours, in µg/mL (unit assumed)
Description: (§1) Representative compounds of the present invention were assayed in vitro for antibacterial activity as follows: Twelve petri dishes containing successive aqueous dilutions of the test compound mixed with 10 mL of sterilized Brain Heart Infusion (BHI) agar (Difco 0418-01-5) were prepared. Each plate was inoculated with 1:100 (or 1:10 for slow-growing strains, such as Micrococcus and Streptococcus) dilutions of up to 32 different microorganisms, using a Steers replicator block. The inoculated plates were incubated at 35-37 °C for 20 to 24 hours, In addition, a control plate, using BHI agar containing no test compound, was prepared and incubated at the beginning and end of each test.
(§2) An additional plate containing a compound having known susceptibility patterns for the organisms being tested and belonging to the same antibiotic class as the test compound was also prepared and incubated as a further control, as well as to provide test-to-test comparability. Erythromycin A was used for this purpose.
(§3) After incubation, each plate was visually inspected. The minimum inhibitory concentration (MIC) was defined as the lowest concentration of drug yielding no growth, a slight haze, or sparsely isolated colonies on the inoculum spot as compared to the growth control. […]

Escherichia coli SS = conditions: BHI agar, 35-37 °C, 20 to 24 hours, unit assumed
Description: as §1, §2, §3

[2] = test system: Staphylococcus aureus CMX 642A; conditions: BHI agar, 35-37 °C, 20 to 24 hours, unit assumed
Description: as §1, §2, §3

[3] = test system: Streptococcus agalactiae CMX 508; conditions: BHI agar, 35-37 °C, 20 to 24 hours, unit assumed
Description: as §1, §2, §3

[4] = test system: Pseudomonas aeruginosa BMH10; conditions: BHI agar, 35-37 °C, 20 to 24 hours, in µg/mL (unit assumed)
Description: as §1, §2, §3

[5] = test system: Streptococcus bovis A-5169; conditions: BHI agar, 35-37 °C, 20 to 24 hours, unit assumed
Description: as §1, §2, §3

[6] = test system: Staphylococcus aureus 1775; conditions: BHI agar, 35-37 °C, 20 to 24 hours, unit assumed
Description: as §1, §2, §3

[7] = test system: Klebsiella pneumoniae ATCC 8045; conditions: BHI agar, 35-37 °C, 20 to 24 hours, unit assumed
Description: as §1, §2, §3

[8] = test system: Enterococcus faecium ATCC 8043; conditions: BHI agar, 35-37 °C, 20 to 24 hours, unit assumed
Description: as §1, §2, §3

[9] = test system: Micrococcus luteus ATCC 4698; conditions: BHI agar, 35-37 °C, 20 to 24 hours, unit assumed
Description: as §1, §2, §3

[10] = test system: Staphylococcus aureus A-5278; conditions: BHI agar, 35-37 °C, 20 to 24 hours, unit assumed
Description: as §1, §2, §3

Candida albicans CCH 442 = conditions: BHI agar, 35-37 °C, 20 to 24 hours, unit assumed
Description: as §1, §2, §3

[11] = test system: Mycobacterium smegmatis ATCC 114; conditions: BHI agar, 35-37 °C, 20 to 24 hours, unit assumed
Description: as §1, §2, §3

[12] = test system: Staphylococcus epidermidis 3519; conditions: BHI agar, 35-37 °C, 20 to 24 hours, unit assumed
Description: as §1, §2, §3

[13] = test system: Streptococcus pyogenes 930; conditions: BHI agar, 35-37 °C, 20 to 24 hours, unit assumed
Description: as §1, §2, §3

[14] = test system: Staphylococcus aureus ATCC 6538P; conditions: BHI agar, 35-37 °C, 20 to 24 hours, unit assumed
Description: as §1, §2, §3

Escherichia coli DC-2 = conditions: BHI agar, 35-37 °C, 20 to 24 hours, unit assumed
Description: as §1, §2, §3

[15] = test system: Enterobacter aerogenes ATCC 13048; conditions: BHI agar, 35-37 °C, 20 to 24 hours, unit assumed
Description: as §1, §2, §3

[16] = test system: Staphylococcus aureus NCTC10649M; conditions: BHI agar, 35-37 °C, 20 to 24 hours, unit assumed
Description: as §1, §2, §3

[17] = test system: Staphylococcus aureus CMX 553; conditions: BHI agar, 35-37 °C, 20 to 24 hours, unit assumed
Description: as §1, §2, §3

[18] = test system: Nocarrdia asteroides ATCC 9970; conditions: BHI agar, 35-37 °C, 20 to 24 hours, unit assumed
Description: as §1, §2, §3

[19] = test system: Providencia struartii CMX 640; conditions: BHI agar, 35-37 °C, 20 to 24 hours, unit assumed
Description: as §1, §2, §3

[20] = test system: Streptococcus pyogenes EES61; conditions: BHI agar, 35-37 °C, 20 to 24 hours, unit assumed
Description: as §1, §2, §3

[21] = test system: Pseudomonas aeruginosa 5007; conditions: BHI agar, 35-37 °C, 20 to 24 hours, unit assumed
Description: as §1, §2, §3

[22] = test system: Micrococcus luteus ATCC 9341; conditions: BHI agar, 35-37 °C, 20 to 24 hours, unit assumed
Description: as §1, §2, §3

Pseudomonas capacia 2961 = conditions: BHI agar, 35-37 °C, 20 to 24 hours, in µg/mL (unit assumed)
Description: as §1, §2, §3

Escherichia coli KNK 437 = conditions: BHI agar, 35-37 °C, 20 to 24 hours, unit assumed
Description: as §1, §2, §3

[23] = test system: Pseudomonas aeruginosa DPHD-2862; conditions: BHI agar, 35-37 °C, 20 to 24 hours, unit assumed
Description: as §1, §2, §3

[24] = test system: Streptococcus pyogenes PIU 2548; conditions: BHI agar, 35-37 °C, 20 to 24 hours, unit assumed
Description: as §1, §2, §3

[25] = test system: Pseudomonas aeruginosa K799/61; conditions: BHI agar, 35-37 °C, 20 to 24 hours, unit assumed
Description: as §1, §2, §3

[26] = test system: Pseudomonas aeruginosa K799/WT; conditions: BHI agar, 35-37 °C, 20 to 24 hours, unit assumed
Description: as §1, §2, §3

Escherichia coli H560 = conditions: BHI agar, 35-37 °C, 20 to 24 hours, unit assumed
Description: as §1, §2, §3

Escherichia coli JUHL = conditions: BHI agar, 35-37 °C, 20 to 24 hours, in µg/mL (unit assumed)
Description: as §1, §2, §3

[27] = test system: Staphylococcus aureus A5177; conditions: BHI agar, 35-37 °C, 20 to 24 hours, unit assumed
Description: as §1
(§4) An additional plate containing a compound having known susceptibility patterns for the organisms being tested and belonging to the same antibiotic class as the test compound was also prepared and incubated as a further control, as well as to provide test-to-test comparability.
as §3

[28] = test system: Actinetobacter calcoaceticus CMX 669; conditions: BHI agar, 35-37 °C, 20 to 24 hours, unit assumed
Description: as §1, §4, §3

| SMILES | MIC [1] | MIC (Escherichia coli SS) [µg/mL] | MIC [2] [µg/mL] | MIC [3] [µg/mL] | MIC [4] | MIC [5] [µg/mL] | MIC [6] [µg/mL] | MIC [7] [µg/mL] | MIC [8] [µg/mL] | MIC [10] [µg/mL] | MIC (Candida albicans CCH 442) [µg/mL] | MIC [11] [µg/mL] | MIC [12] [µg/mL] | MIC [13] [µg/mL] | MIC [14] [µg/mL] | MIC (Escherichia coli DC-2) [µg/mL] | MIC [15] [µg/mL] | MIC [16] [µg/mL] | MIC [17] [µg/mL] | MIC [18] [µg/mL] | further results |
| --- | --- | --- | --- | --- | --- | --- | --- | --- | --- | --- | --- | --- | --- | --- | --- | --- | --- | --- | --- | --- | --- |
| CC[C@H]1OC(=O)[C@H](C)[C@@H](O[C@H]2C[C@@](C)(OC)[C@@H](O)[C@H](C)O2)[C@H](C)[C@@H](O[C@@H]2O[C@H](C)C[C@H](N(C)C)[C@H]2O)[C@](C)(OCC=O)C[C@@H](C)C(=O)[C@H](C)[C@@H](O)[C@]1(C)O [Example 8, Compound of Formula (X): X is =O, R is 2-oxoethyl] | > 100 | 1.56 | 0.78 | 0.39 | > 100 | 0.2 | > 100 | > 100 | 0.39 | > 100 | > 100 | 6.2 | 0.78 | > 100 | 0.78 | > 100 | > 100 | 0.78 | 0.78 | 0.39 | MIC [9]: 1.56 µg/mL; MIC [19]: > 100 µg/mL; MIC [20]: 0.1 µg/mL; MIC [21]: > 100 µg/mL; MIC [22]: 0.1 µg/mL; MIC (Pseudomonas capacia 2961): > 100; MIC (Escherichia coli KNK 437): > 100 µg/mL; MIC [23]: > 100 µg/mL; MIC [24]: 25 µg/mL; MIC [25]: 3.1 µg/mL; MIC [26]: > 100 µg/mL; MIC (Escherichia coli H560): 50 µg/mL; MIC (Escherichia coli JUHL): 100; MIC [27]: 12.5 µg/mL; MIC [28]: 50 µg/mL |
| CC[C@H]1OC(=O)[C@H](C)[C@@H](O[C@H]2C[C@@](C)(OC)[C@@H](O)[C@H](C)O2)[C@H](C)[C@@H](O[C@@H]2O[C@H](C)C[C@H](N(C)C)[C@H]2O)[C@](C)(OCC(O)CN=[N+]=[N-])C[C@@H](C)C(=O)[C@H](C)[C@@H](O)[C@]1(C)O (some centres unmarked) [Example 11, Compound of Formula (X): X is =O, R is -CH2-CHOH-CH2-N3] | > 100 | 1.56 | 1.56 | 0.05 | > 100 | 0.2 | > 100 | > 100 | 0.39 | > 100 | > 100 | 0.39 | 0.78 | > 100 | 0.78 | > 100 | > 100 | 0.78 | 0.78 | 0.1 | MIC [19]: > 100 µg/mL; MIC [20]: 0.05 µg/mL; MIC [21]: > 100 µg/mL; MIC [22]: 0.05 µg/mL; MIC (Pseudomonas capacia 2961): > 100; MIC (Escherichia coli KNK 437): > 100 µg/mL; MIC [23]: > 100 µg/mL; MIC [24]: 25 µg/mL; MIC [26]: > 100 µg/mL; MIC (Escherichia coli H560): 50 µg/mL; MIC (Escherichia coli JUHL): 100; MIC [27]: 6.2 µg/mL; MIC [28]: 25 µg/mL |

Source: patent EP1007530B1, “6-O-SUBSTITUTED ERYTHROMYCIN COMPOUNDS AND METHOD FOR MAKING SAME” (ABBOTT LABORATORIES, priority 1996, dated 1997)
